Experiment [1] has as its system Chlamydomonas reinhardtii. The experiment can be described thus: Dose-response curves of Chlamydomonas reinhardtii wild-type and mutagenized cells (strain 17). To be noted: mutagenized cells (strain 17) versus wild-type cells.
In experiment [2] the test system is Chlamydomonas reinhardtii. Briefly: Selection of Chlamydomonas reinhardtii strains on solid medium containing herbicide. The experiment is classed as cell-based. To be noted: solid medium containing 1×10^−7 M.

Structures are written as SMILES.

As to `C#CCN1C(=O)C(F)(F)Oc2cc(F)c(-n3c(=O)n(C)c(=S)n(C)c3=O)cc21` [I.a.35], the “IC50 of strain 17 compared to Wild-type cells” value in experiment [1] is recorded as “much lower IC50”. Moreover, in experiment [2] (resistant cells (colonies 31 and 32)), the “growth of resistant mutagenized cells on solid medium” value is “form colonies”. For the same compound, the “growth of susceptible mutagenized cells on solid medium” value in experiment [2] (susceptible cells) was “do not grow”.

The values are drawn from patent publication US12529066B2, “Plants having increased tolerance to herbicides” (BASF AGRO B.V., priority 2012, dated 2026).
